Results reported in ChEMBL document CHEMBL1201862, “PubChem BioAssay data set” (2004).
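Test compounds were applied to cells in 96-well plates for 48 hours at 5 doses. Abbreviation: GI50, concentration required for 50% inhibition of growth.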 Activity calls are given as the source filed them. No stated cut-off is given here; in the data, active = GI50 up to about 1.1 µM and inactive = higher.

Experiments:
Assay in all cases: NCI anticancer screen, dose series, 48 h
786-0 = system: 786-0
A549 = system: A549
ACHN = system: ACHN
BT-549 = system: BT-549
DU-145 = system: DU-145
HOP-92 = system: HOP-92
Hs-578T = system: Hs-578T
MDA-MB-231 = system: MDA-MB-231
NCI-H226 = system: NCI-H226
OVCAR-8 = system: OVCAR-8
PC-3 = system: PC-3
RPMI-8226 = system: RPMI-8226
SK-MEL-28 = system: SK-MEL-28
SK-MEL-2 = system: SK-MEL-2
SW-620 = system: SW-620
T47D = system: T47D
U-251 = system: U-251
A498 = system: A498
MOLT-4 = system: MOLT-4
NCI-H460 = system: NCI-H460

Row | Compound | GI50 (786-0) | GI50 (A549) | GI50 (ACHN) | GI50 (BT-549) | GI50 (DU-145) | GI50 (HOP-92) | GI50 (Hs-578T) | GI50 (MDA-MB-231) | GI50 (NCI-H226) | GI50 (OVCAR-8) | GI50 (PC-3) | GI50 (RPMI-8226) | GI50 (SK-MEL-28) | GI50 (SK-MEL-2) | GI50 (SW-620) | GI50 (T47D) | GI50 (U-251) | GI50 (A498) | GI50 (MOLT-4) | GI50 (NCI-H460)
1 | CC1CN=C(Nc2cccc(F)c2)S1 (stereo unspecified) | > 100 µM (inactive) | > 100 µM (inactive) | > 100 µM (inactive) | > 100 µM (inactive) | > 100 µM (inactive) | > 100 µM (inactive) | > 100 µM (inactive) | 3.99 µM (inactive) | > 100 µM (inactive) | > 100 µM (inactive) | > 100 µM (inactive) | > 100 µM (inactive) | > 100 µM (inactive) | > 100 µM (inactive) | > 100 µM (inactive) | > 100 µM (inactive) | > 100 µM (inactive) | – | – | –
2 | C#Cc1cc(Br)c(OC(=O)C(C)(C)C)c(-c2cc(C#C)cc(Br)c2OC(=O)C(C)(C)C)c1 | 41.5 µM (inactive) | 31.8 µM (inactive) | 21.4 µM (inactive) | > 100 µM (inactive) | 62.4 µM (inactive) | 36.9 µM (inactive) | 53.6 µM (inactive) | 35.1 µM (inactive) | – | 65.3 µM (inactive) | 50.2 µM (inactive) | 12.5 µM (inactive) | 61.2 µM (inactive) | 49 µM (inactive) | 27 µM (inactive) | 18.3 µM (inactive) | 45.1 µM (inactive) | 57.7 µM (inactive) | 23 µM (inactive) | 42.5 µM (inactive)
3 | Clc1ccc(NCc2nnc(CCCCCCCCc3nnc(CNc4ccc(Cl)cc4)o3)o2)cc1 | > 100 µM (inactive) | > 100 µM (inactive) | > 100 µM (inactive) | > 100 µM (inactive) | > 100 µM (inactive) | > 100 µM (inactive) | > 100 µM (inactive) | > 100 µM (inactive) | – | > 100 µM (inactive) | > 100 µM (inactive) | > 100 µM (inactive) | – | > 100 µM (inactive) | – | > 100 µM (inactive) | > 100 µM (inactive) | > 100 µM (inactive) | > 100 µM (inactive) | > 100 µM (inactive)
4 | O=C(NC(CO)CO)c1ccc2cc(C(=O)N3CC(CCl)c4ccc([N+](=O)[O-])cc43)[nH]c2c1 (stereo unspecified) | > 100 µM (inactive) | > 100 µM (inactive) | > 100 µM (inactive) | > 100 µM (inactive) | > 100 µM (inactive) | > 100 µM (inactive) | > 100 µM (inactive) | 66.1 µM (inactive) | > 100 µM (inactive) | > 100 µM (inactive) | > 100 µM (inactive) | – | > 100 µM (inactive) | > 100 µM (inactive) | > 100 µM (inactive) | 0.619 µM (active) | > 100 µM (inactive) | – | > 100 µM (inactive) | > 100 µM (inactive)
5 | CCCC(=O)NC(Nc1cc(C)ccn1)(C(=O)OCC)C(F)(F)F (stereo unspecified) | > 100 µM (inactive) | > 100 µM (inactive) | > 100 µM (inactive) | > 100 µM (inactive) | > 100 µM (inactive) | 91 µM (inactive) | > 100 µM (inactive) | > 100 µM (inactive) | > 100 µM (inactive) | > 100 µM (inactive) | > 100 µM (inactive) | > 100 µM (inactive) | > 100 µM (inactive) | > 100 µM (inactive) | > 100 µM (inactive) | > 100 µM (inactive) | > 100 µM (inactive) | – | > 100 µM (inactive) | –
6 | COc1cc(COC(=O)N2CCCCC2C(=O)O)c([N+](=O)[O-])cc1OC (stereo unspecified) | > 100 µM (inactive) | > 100 µM (inactive) | > 100 µM (inactive) | > 100 µM (inactive) | > 100 µM (inactive) | > 100 µM (inactive) | > 100 µM (inactive) | – | > 100 µM (inactive) | > 100 µM (inactive) | > 100 µM (inactive) | > 100 µM (inactive) | > 100 µM (inactive) | – | > 100 µM (inactive) | > 100 µM (inactive) | > 100 µM (inactive) | > 100 µM (inactive) | > 100 µM (inactive) | > 100 µM (inactive)
7 | O=C1/C(=C/c2ccco2)N=C(c2ccccc2)N1c1cc2cc(Sc3ccccc3)ccc2[nH]1 | > 25 µM (inactive) | > 25 µM (inactive) | > 25 µM (inactive) | 19.4 µM (inactive) | > 25 µM (inactive) | 8.24 µM (inactive) | 15.3 µM (inactive) | – | – | 22.8 µM (inactive) | > 25 µM (inactive) | 0.457 µM (active) | > 25 µM (inactive) | 7.53 µM (inactive) | 13.1 µM (inactive) | 15.8 µM (inactive) | – | 17 µM (inactive) | 22.4 µM (inactive) | –
8 | C=C[C@H]1CN2CCc3c([nH]c4c([C@H]5CCCN5C)c(O)ccc34)[C@@H]2C[C@@H]1C[C@H]1c2[nH]c3ccccc3c2CCN1C [STRYCHNOPENTAMINE] | 1.43 µM (inactive) | 1.55 µM (inactive) | 1.78 µM (inactive) | 1.94 µM (inactive) | 1.63 µM (inactive) | 1.58 µM (inactive) | 1.78 µM (inactive) | 1.81 µM (inactive) | – | 1.23 µM (inactive) | 1.57 µM (inactive) | 0.653 µM (active) | 1.76 µM (inactive) | 1.9 µM (inactive) | 1.24 µM (inactive) | 1.8 µM (inactive) | 1.43 µM (inactive) | 1.63 µM (inactive) | – | 1.48 µM (inactive)
